The text below walks through data of ChEMBL document CHEMBL1201862, “PubChem BioAssay data set” (2004).

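Step 1: Grow cells in 96-well plates. Step 2: Expose to compound for 48 hours at 5 concentrations. Step 3: Interpolate endpoints linearly; if unreached, use highest concentration. Here, GI50 denotes the concentration required for 50% inhibition of growth.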 Activity calls are given as the source filed them. No stated cut-off is given here; in the data, active = GI50 up to about 1.1 µM and inactive = higher. Bounds are passed on as bounds.

Some test systems named below: OVCAR-8; HT-29; SF-539; IGROV-1; UACC-257; HOP-62; HCT-15; NCI-H226; UO-31; KM12; CCRF-CEM; SNB-19; HCT-116; K562; SK-MEL-28; HL-60; SNB-75; HCC 2998; NCI-H522; RPMI-8226.
Holding throughout (experiment): NCI anticancer screen, dose series, 48 h

`CC/C=C\C/C=C\C/C=C\CCCCCCCC(=O)OC` [METHYL LINOLENATE]: the GI50 in the assay with OVCAR-8, in the assay on HT-29, in the assay with SF-539, in the assay with IGROV-1, with UACC-257 and in the assay on HOP-62 was > 100 µM (inactive) throughout. For the same compound, the GI50 in the assay on HCT-15 is > 100 µM; in the assay with NCI-H226 it was > 100 µM (inactive); with UO-31, > 100 µM (inactive); with KM12 it was > 100 µM (inactive); in the assay on CCRF-CEM it was 45.8 µM (inactive); with SNB-19, > 100 µM (inactive). The GI50 with HCT-116 is 91.6 µM (inactive); with K562, 45.5 µM (inactive); in the assay with SK-MEL-28, > 100 µM (inactive); with HL-60, 22.8 µM (inactive); in the assay on SNB-75, 67.6 µM (inactive); with HCC 2998 it was > 100 µM (inactive). Moreover, the figures for the GI50 with NCI-H522 and with RPMI-8226 were > 100 µM (inactive) and 99.3 µM (inactive), respectively.

For `O=C1NC(O)CCN1C1OC(CO)C(O)C1O` (stereo not given), the GI50 with OVCAR-8 was > 250 µM (inactive); in the assay with HT-29, > 250 µM (inactive); with SF-539, > 250 µM (inactive); in the assay with IGROV-1, > 250 µM (inactive); with UACC-257, > 250 µM (inactive); in the assay with HOP-62, > 228 µM (inactive). The GI50 is > 250 µM in the assay with HCT-15; > 250 µM (inactive) in the assay on NCI-H226; > 250 µM (inactive) with UO-31; > 250 µM (inactive) in the assay with KM12; > 250 µM (inactive) with CCRF-CEM; > 250 µM (inactive) in the assay on SNB-19. Further, the GI50 in the assay on HCT-116 is > 141 µM (inactive); in the assay with K562 it was > 250 µM (inactive); in the assay on SK-MEL-28, > 250 µM (inactive); in the assay with HL-60 it was > 250 µM (inactive); in the assay on SNB-75 it was > 250 µM (inactive); with HCC 2998, > 250 µM (inactive). Besides, the GI50 with NCI-H522 is > 216 µM (inactive); in the assay with RPMI-8226 it was > 250 µM (inactive).

Consider `CC(C)NC(=O)OCc1c(COC(=O)NC(C)C)c(-c2ccc[n+](COC(=O)C3CCCCC3)c2)n2c1CCC2`, for which the GI50 with OVCAR-8 was 51.2 µM (inactive); with HT-29, 90.6 µM (inactive); in the assay with SF-539 it was 35.8 µM (inactive); with IGROV-1, > 100 µM (inactive); in the assay with UACC-257, > 100 µM (inactive); with HOP-62, 37.7 µM (inactive). Further, the GI50 with HCT-15 is 85.5 µM; in the assay with NCI-H226, > 100 µM (inactive); in the assay on UO-31, 40.6 µM (inactive); with KM12, > 100 µM (inactive); in the assay on CCRF-CEM it was > 100 µM (inactive); with SNB-19 it was > 100 µM (inactive). Also, the GI50 with HCT-116 is 56.4 µM (inactive); in the assay with K562 it was > 100 µM (inactive); in the assay on SK-MEL-28, > 100 µM (inactive); in the assay with HL-60, > 100 µM (inactive); in the assay with SNB-75, 46.8 µM (inactive); with HCC 2998 it was > 100 µM (inactive). The GI50 was 25.1 µM (inactive) with NCI-H522 and > 100 µM (inactive) in the assay with RPMI-8226.
